In the supplement of paper PMC10307832:

What was measured:
Test in all cases: relative viability (nuclei count vs DMSO), 5 days (fraction); higher = more cells survive
NCI-H2087 = test system: NCI-H2087
In short: (§1)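 Values are medians from duplicate plates. Each reflects relative viability, defined as the nuclei count of treated wells over that of vehicle wells. Lung cancer cell lines in 1536-well plates were pin-tool dosed one day after seeding with one drug alone or with a fixed anchor-drug dose plus five library-drug doses (not always all listed) in √10 steps, then fixed, stained and imaged at 4× after 5 days.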

NCI-H596 = test system: NCI-H596
In short: as §1

NCI-H1666 = test system: NCI-H1666
In short: as §1

HCC-78 = test system: HCC-78
In short: as §1

LCLC-97TM1 = test system: LCLC-97TM1
In short: as §1

HCC-15 = test system: HCC-15
In short: as §1

NCI-H1944 = test system: NCI-H1944
In short: as §1

NCI-H1651 = test system: NCI-H1651
In short: as §1

NCI-H2342 = test system: NCI-H2342
In short: as §1

NCI-H650 = test system: NCI-H650
In short: as §1

BEN = test system: BEN
In short: as §1

LC-2-ad = test system: LC-2-ad
In short: as §1

PC-3 [JPC-3] = test system: PC-3 [JPC-3]
In short: as §1

NCI-H838 = test system: NCI-H838
In short: as §1

NCI-H322M = test system: NCI-H322M
In short: as §1

ChaGo-K-1 = test system: ChaGo-K-1
In short: as §1

LXF-289 = test system: LXF-289
In short: as §1

NCI-H358 = test system: NCI-H358
In short: as §1

LK-2 = test system: LK-2
In short: as §1

LU99A = test system: LU99A
In short: as §1

CC1(C)CCC(c2ccc(Cl)cc2)=C(CN2CCN(c3ccc(C(=O)NS(=O)(=O)c4ccc(N[C@H](CCN5CCOCC5)CSc5ccccc5)c(S(=O)(=O)C(F)(F)F)c4)cc3)CC2)C1 [Navitoclax] + NC(=O)Nc1cc(-c2cccc(F)c2)sc1C(=O)N[C@H]1CCCNC1 [AZD7762] (partner 0.2 µM)
relative viability (NCI-H2087; first compound 0.005 µM): 1.18
relative viability (NCI-H2087; first compound 0.01581 µM): 1.38
relative viability (NCI-H2087; first compound 0.1581 µM): 1.29
relative viability (NCI-H2087; first compound 0.5 µM): 1.41
relative viability (NCI-H596; first compound 0.005 µM): 1.32
relative viability (NCI-H596; first compound 0.01581 µM): 1.26
relative viability (NCI-H596; first compound 0.05 µM): 0.919
relative viability (NCI-H596; first compound 0.1581 µM): 1.05
relative viability (NCI-H596; first compound 0.5 µM): 1.05
relative viability (NCI-H1666; first compound 0.005 µM): 0.934
relative viability (NCI-H1666; first compound 0.01581 µM): 0.883
relative viability (NCI-H1666; first compound 0.05 µM): 0.738
relative viability (NCI-H1666; first compound 0.1581 µM): 0.861
relative viability (NCI-H1666; first compound 0.5 µM): 0.882
relative viability (HCC-78; first compound 0.005 µM): 0.985
relative viability (HCC-78; first compound 0.01581 µM): 0.612
relative viability (HCC-78; first compound 0.05 µM): 0.508
relative viability (HCC-78; first compound 0.1581 µM): 0.607
relative viability (HCC-78; first compound 0.5 µM): 0.667
relative viability (LCLC-97TM1; first compound 0.005 µM): 0.236
relative viability (LCLC-97TM1; first compound 0.01581 µM): 0.301
relative viability (LCLC-97TM1; first compound 0.05 µM): 0.181
relative viability (LCLC-97TM1; first compound 0.1581 µM): 0.253
relative viability (LCLC-97TM1; first compound 0.5 µM): 0.22
relative viability (HCC-15; first compound 0.005 µM): 0.868
relative viability (HCC-15; first compound 0.01581 µM): 1.2
relative viability (HCC-15; first compound 0.05 µM): 0.838
relative viability (HCC-15; first compound 0.1581 µM): 1.03
relative viability (HCC-15; first compound 0.5 µM): 1.05
relative viability (NCI-H1944; first compound 0.005 µM): 0.52
relative viability (NCI-H1944; first compound 0.01581 µM): 0.637
relative viability (NCI-H1944; first compound 0.1581 µM): 0.489
relative viability (NCI-H1944; first compound 0.5 µM): 0.582
relative viability (NCI-H1651; first compound 0.005 µM): 0.485
relative viability (NCI-H1651; first compound 0.01581 µM): 0.488
relative viability (NCI-H1651; first compound 0.05 µM): 0.335
relative viability (NCI-H1651; first compound 0.1581 µM): 0.474
relative viability (NCI-H1651; first compound 0.5 µM): 0.466
relative viability (NCI-H2342; first compound 0.005 µM): 0.532
relative viability (NCI-H2342; first compound 0.01581 µM): 0.464
relative viability (NCI-H2342; first compound 0.05 µM): 0.424
relative viability (NCI-H2342; first compound 0.1581 µM): 0.603
relative viability (NCI-H2342; first compound 0.5 µM): 0.571
relative viability (NCI-H650; first compound 0.005 µM): 0.946
relative viability (NCI-H650; first compound 0.01581 µM): 1.12
relative viability (NCI-H650; first compound 0.05 µM): 1.13
relative viability (NCI-H650; first compound 0.1581 µM): 0.801
relative viability (NCI-H650; first compound 0.5 µM): 0.937
relative viability (BEN; first compound 0.005 µM): 0.705
relative viability (BEN; first compound 0.01581 µM): 0.667
relative viability (BEN; first compound 0.05 µM): 0.647
relative viability (BEN; first compound 0.1581 µM): 0.725
relative viability (BEN; first compound 0.5 µM): 0.377
relative viability (LC-2-ad; first compound 0.005 µM): 0.835
relative viability (LC-2-ad; first compound 0.01581 µM): 0.957
relative viability (LC-2-ad; first compound 0.05 µM): 0.796
relative viability (LC-2-ad; first compound 0.1581 µM): 0.815
relative viability (LC-2-ad; first compound 0.5 µM): 0.822
relative viability (PC-3 [JPC-3]; first compound 0.005 µM): 0.726
relative viability (PC-3 [JPC-3]; first compound 0.01581 µM): 0.972
relative viability (PC-3 [JPC-3]; first compound 0.05 µM): 0.483
relative viability (PC-3 [JPC-3]; first compound 0.1581 µM): 0.702
relative viability (PC-3 [JPC-3]; first compound 0.5 µM): 0.759
relative viability (NCI-H838; first compound 0.005 µM): 0.971
relative viability (NCI-H838; first compound 0.01581 µM): 0.869
relative viability (NCI-H838; first compound 0.05 µM): 0.937
relative viability (NCI-H838; first compound 0.1581 µM): 0.97
relative viability (NCI-H838; first compound 0.5 µM): 0.957
relative viability (NCI-H322M; first compound 0.005 µM): 0.648
relative viability (NCI-H322M; first compound 0.01581 µM): 0.626
relative viability (NCI-H322M; first compound 0.05 µM): 0.511
relative viability (NCI-H322M; first compound 0.1581 µM): 0.587
relative viability (NCI-H322M; first compound 0.5 µM): 0.679
relative viability (ChaGo-K-1; first compound 0.005 µM): 0.879
relative viability (ChaGo-K-1; first compound 0.01581 µM): 0.875
relative viability (ChaGo-K-1; first compound 0.05 µM): 0.655
relative viability (ChaGo-K-1; first compound 0.1581 µM): 0.883
relative viability (ChaGo-K-1; first compound 0.5 µM): 0.803
relative viability (LXF-289; first compound 0.005 µM): 1.11
relative viability (LXF-289; first compound 0.01581 µM): 1.18
relative viability (LXF-289; first compound 0.05 µM): 0.924
relative viability (LXF-289; first compound 0.1581 µM): 1.06
relative viability (LXF-289; first compound 0.5 µM): 1.04
relative viability (NCI-H358; first compound 0.005 µM): 0.566
relative viability (NCI-H358; first compound 0.01581 µM): 0.712
relative viability (NCI-H358; first compound 0.05 µM): 0.545
relative viability (NCI-H358; first compound 0.1581 µM): 0.485
relative viability (NCI-H358; first compound 0.5 µM): 0.592
relative viability (LK-2; first compound 0.005 µM): 0.593
relative viability (LK-2; first compound 0.01581 µM): 0.567
relative viability (LK-2; first compound 0.05 µM): 0.295
relative viability (LK-2; first compound 0.1581 µM): 0.358
relative viability (LK-2; first compound 0.5 µM): 0.351
relative viability (LU99A; first compound 0.005 µM): 0.414
relative viability (LU99A; first compound 0.01581 µM): 0.466
relative viability (LU99A; first compound 0.1581 µM): 0.43
relative viability (LU99A; first compound 0.5 µM): 0.439
